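Each compound was tested at five concentrations against cells in 96-well plates for 48 hours. GI50 marks 50% less growth.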 The source made the active and inactive calls. Rule as the data show it: active = GI50 up to about 1.1 µM and inactive = higher.
Assays:
Experiment in all cases: inhibition of tumour cell growth, NCI panel, 48 h
[1] = test system: UACC-62
[2] = test system: K562
[3] = test system: LOX IMVI
[4] = test system: U-251
[5] = test system: COLO 205
[6] = test system: KM12
[7] = test system: ACHN
[8] = test system: RXF 393
[9] = test system: SF-268
[10] = test system: NCI-H460
[11] = test system: CAKI-1
[12] = test system: A549
[13] = test system: OVCAR-3
[14] = test system: KM-20L2
[15] = test system: M19-MEL
[16] = test system: UACC-257
[17] = test system: NCI-H522
[18] = test system: CCRF-CEM
[19] = test system: 786-0
[20] = test system: MOLT-4
[21] = test system: SF-295
[22] = test system: SW-620
[23] = test system: M14
[24] = test system: RPMI-8226
[25] = test system: HOP-18
[26] = test system: OVCAR-5
[27] = test system: HOP-62
[28] = test system: OVCAR-8
[29] = test system: SN12C
[30] = test system: DLD-1
[31] = test system: SNB-78
[32] = test system: SF-539
[33] = test system: OVCAR-4
[34] = test system: NCI-H23
[35] = test system: SR
[36] = test system: HCT-15
[37] = test system: RXF 631
[38] = test system: A498
[39] = test system: HT-29
[40] = test system: HCC 2998
[41] = test system: SK-MEL-28
[42] = test system: SK-OV-3
[43] = test system: EKVX
[44] = test system: HCT-116
[45] = test system: SK-MEL-5
[46] = test system: DMS-273
[47] = test system: UO-31
[48] = test system: SNB-75
[49] = test system: SNB-19
[50] = test system: IGROV-1
[51] = test system: HOP-92
[52] = test system: NCI-H226
[53] = test system: LXFL 529
[54] = test system: TK-10
[55] = test system: Malme-3M
[56] = test system: SK-MEL-2
[57] = test system: HL-60
[58] = test system: DMS-114

Measured: GI50

CC(=O)OC1C(COC(N)=O)OC(n2c(-c3ccc(C)cc3)cc(-c3ccccc3)c(C#N)c2=O)C(OC(C)=O)C1OC(C)=O (stereo not given)
inactive: [1] > 100 µM | [2] > 100 µM | [3] > 100 µM | [4] > 100 µM | [5] > 100 µM | [6] > 100 µM | [7] > 100 µM | [8] > 100 µM | [9] > 100 µM | [10] 96.2 µM | [11] > 100 µM | [12] > 100 µM | [13] > 100 µM | [14] > 100 µM | [15] > 100 µM | [16] > 100 µM | [17] > 100 µM | [18] > 100 µM | [19] > 100 µM | [20] > 100 µM | [21] > 100 µM | [22] > 100 µM | [23] > 100 µM | [24] > 100 µM | [25] > 100 µM | [26] > 100 µM | [27] > 100 µM | [28] > 100 µM | [29] > 100 µM | [30] > 100 µM | [31] > 100 µM | [32] > 100 µM | [33] > 100 µM | [34] > 100 µM | [35] > 100 µM | [37] > 100 µM | [38] > 100 µM | [39] > 100 µM | [40] 53.7 µM | [41] > 100 µM | [42] > 100 µM | [43] > 100 µM | [44] > 100 µM | [45] > 100 µM | [46] > 100 µM | [47] 71.9 µM | [48] 44 µM | [49] > 100 µM | [50] > 100 µM | [51] 9.86 µM | [52] > 100 µM | [53] > 100 µM | [54] > 100 µM | [55] > 100 µM | [56] > 100 µM
> 100 µM: [36]

O=C(/C=C/c1ccc(Cl)c(Cl)c1)c1ccc(F)cc1
10.2 µM: [36]
inactive: [1] 14.7 µM | [2] 4.33 µM | [4] 13 µM | [5] 23.3 µM | [6] 8.65 µM | [7] 17.8 µM | [9] 28.2 µM | [10] 23.6 µM | [11] 18.5 µM | [12] 42.8 µM | [13] 18.6 µM | [14] 16.5 µM | [15] 18.2 µM | [16] 23.8 µM | [17] 4.45 µM | [18] 4.42 µM | [19] 15.5 µM | [57] 11.9 µM | [20] 15.8 µM | [21] 20.2 µM | [22] 2.05 µM | [23] 16.9 µM | [24] 3.3 µM | [25] 16.9 µM | [26] 18.3 µM | [27] > 100 µM | [28] 16.7 µM | [29] 22.5 µM | [30] 14.4 µM | [31] 20.7 µM | [32] 20.8 µM | [33] 19.2 µM | [34] 29.8 µM | [58] 14.7 µM | [37] 50 µM | [38] 50.9 µM | [39] 13.3 µM | [40] 16.6 µM | [41] 18.6 µM | [42] 29 µM | [43] 27.4 µM | [44] 7.67 µM | [45] 19.9 µM | [46] 12.5 µM | [47] > 100 µM | [48] 22.9 µM | [49] 16.8 µM | [50] 20.3 µM | [51] 32.2 µM | [52] 33.1 µM | [53] 14.6 µM | [54] 25.4 µM | [55] 34.3 µM

Source: ChEMBL document CHEMBL1201862, “PubChem BioAssay data set” (2004)
